Experimental data as given in publication PMC10033419, “Blocking NS3–NS4B interaction inhibits dengue virus in non-human primates” (Nature, 2023).
Values joined by “and” are separate entries in the source; they are usually repeats but may differ in a detail not shown here. Equal entries are not always repeated.

Key:
RSV rgRSV224 = assay: microbe, parasite or virus in culture; assay type: cell-based; settings: human respiratory syncytial virus, HeLa
DENV-3 G5 Brazil = assay type: cell-based; settings: T108A in NS4B
DENV-2 RL strain = assay: Day 3 viraemia model, high viral inoculum (10^6 PFU); assay type: in vivo, AG129 mice; settings: for Av Log 10 (average): group average; for Av Log 10 (Ave/Med: median): group median; for Copy number / Log 10 (copy number): individual animals, listed as 64281802-AAA
[1] = Study 1+2+3 compiled data, 0,2 mg/kg/d
[2] = Study 1+2+3 compiled data, 0,6 mg/kg/d
[3] = Study 1+2+3 compiled data, 2 mg/kg/d
[4] = Study 1+2+3 compiled data, 2 mg/kg/d, 2 mg/kg/day
[5] = Study 1+2+3 compiled data, 6 mg/kg/d
[6] = Study 1+2+3 compiled data, 6 mg/kg/d, 6 mg/kg/day
[7] = Study 1+2+3 compiled data, 20 mg/kg/d
[8] = Study 1+2+3 compiled data, 20 mg/kg/d, 20 mg/kg/day
[9] = Study 1+2+3 compiled data, 60 mg/kg/d
[10] = Study 1+2+3 compiled data, 60 mg/kg/d, 60 mg/kg/day

COc1cc(N[C@H](C(=O)c2c[nH]c3ccc(OC(F)(F)F)cc23)c2ccc(Cl)cc2OC)cc(S(C)(=O)=O)c1 [JNJ-1802]
EC50 (RSV rgRSV224; read-out: EC50, Mean): 3.18 µM
EC90 (RSV rgRSV224; read-out: EC90, Mean): 5.46 µM
EC50 (DENV-3 G5 Brazil): 0.0018 ± 0.0014 µM
EC90 (DENV-3 G5 Brazil): 0.0038 ± 0.0011 µM
viraemia day 3 p.i., average Log 10 (DENV-2 RL strain; 0,3 mg/kg/d q.d.): 6.63 log10 viral RNA copies/mL
viraemia day 3 p.i., median Log 10 (DENV-2 RL strain; 0,3 mg/kg/d q.d.): 6.66 log10 viral RNA copies/mL
viraemia day 3 p.i., average Log 10 (DENV-2 RL strain; 3 mg/kg/d q.d.): 3.84 log10 viral RNA copies/mL
viraemia day 3 p.i., median Log 10 (DENV-2 RL strain; 3 mg/kg/d q.d.): 4.27 log10 viral RNA copies/mL
mice with undetectable viral RNA (DENV-2 RL strain; 20 mg per kg per day b.i.d.): 13 out of 14
mice with undetectable viral RNA (DENV-2 RL strain; 30 mg per kg q.d.): five out of eight
viraemia day 3 p.i., average Log 10 (DENV-2 RL strain; 30 mg/kg/d q.d.): 3.09 log10 viral RNA copies/mL
viraemia day 3 p.i., median Log 10 (DENV-2 RL strain; 30 mg/kg/d q.d.): 2.59 log10 viral RNA copies/mL
mice with undetectable viral RNA (DENV-2 RL strain; 60 mg per kg per day b.i.d.): four out of seven
Av Log 10 (average) (DENV-2 RL strain; [1]): 5.92
Av Log 10 (Ave/Med: median) (DENV-2 RL strain; [1]): 6.05
Copy number (DENV-2 RL strain; [1]): 1.86E+06 and 1.20E+06 and 1.13E+06 and 8.80E+05 and 2.24E+05 and 2.37E+06 and 1.58E+06 and 7.37E+04 and 5.97E+06 and 8.67E+05 and 1.42E+06 and 1.06E+06 and 9.43E+04
Log 10 (copy number) (DENV-2 RL strain; [1]): 6.27 and 6.08 and 6.05 and 5.94 and 5.35 and 6.38 and 6.20 and 4.87 and 6.78 and 6.15 and 6.03 and 4.97
Av Log 10 (average) (DENV-2 RL strain; [2]): 4.22
Av Log 10 (Ave/Med: median) (DENV-2 RL strain; [2]): 4.52
Copy number (DENV-2 RL strain; [2]): 3.93E+02
Log 10 (copy number) (DENV-2 RL strain; [2]): 2.59
Av Log 10 (average) (DENV-2 RL strain; [3]): 4.68
Av Log 10 (Ave/Med: median) (DENV-2 RL strain; [3]): 4.60
Copy number (DENV-2 RL strain; [4]): 8.93E+05 and 4.00E+05 and 3.96E+05 and 1.24E+06 and 6.51E+05 and 1.32E+04 and 2.02E+05 and 2.06E+04
Log 10 (copy number) (DENV-2 RL strain; [4]): 5.95 and 5.60 and 6.09 and 5.81 and 3.95
Av Log 10 (average) (DENV-2 RL strain; [5]): 4.33
Av Log 10 (Ave/Med: median) (DENV-2 RL strain; [5]): 4.37
Copy number (DENV-2 RL strain; [6]): 5.85E+04 and 1.40E+05 and 1.03E+05 and 2.15E+04 and 1.94E+05 and 8.27E+04 and 1.06E+04 and 2.60E+04 and 9.12E+03 and 5.17E+03 and 3.62E+04 and 5.97E+03 and 3.93E+02
Log 10 (copy number) (DENV-2 RL strain; [6]): 4.77 and 5.15 and 5.01 and 4.33 and 5.29 and 4.92 and 4.03 and 4.41 and 3.96 and 3.71 and 4.56 and 4.11 and 3.78 and 2.59
Av Log 10 (average) (DENV-2 RL strain; [7]): 2.70
Av Log 10 (Ave/Med: median) (DENV-2 RL strain; [7]): 2.59
Copy number (DENV-2 RL strain; [8]): 1.05E+04 and 3.93E+02
Log 10 (copy number) (DENV-2 RL strain; [8]): 4.02 and 2.59
Av Log 10 (average) (DENV-2 RL strain; [9]): 3.05
Av Log 10 (Ave/Med: median) (DENV-2 RL strain; [9]): 2.59
Copy number (DENV-2 RL strain; [10]): 3.93E+02 and 1.22E+04 and 1.55E+03 and 5.28E+03
Log 10 (copy number) (DENV-2 RL strain; [10]): 2.59 and 4.09 and 3.19 and 3.72
Av Log 10 (average) (DENV-2 RL strain; Study 1 - 160222, 2 mg/kg/d): 5.30
Av Log 10 (Ave/Med: median) (DENV-2 RL strain; Study 1 - 160222, 2 mg/kg/d): 5.60
Copy number (DENV-2 RL strain; Study 1 - 160222, 2 mg/kg/d): 8.93E+05 and 4.00E+05 and 3.96E+05 and 1.24E+06 and 6.51E+05 and 1.32E+04 and 2.02E+05
Log 10 (copy number) (DENV-2 RL strain; Study 1 - 160222, 2 mg/kg/d): 5.95 and 5.60 and 6.09 and 5.81 and 3.95 and 4.12 and 5.30
Av Log 10 (average) (DENV-2 RL strain; Study 1 - 160222, 6 mg/kg/d): 4.74
Av Log 10 (Ave/Med: median) (DENV-2 RL strain; Study 1 - 160222, 6 mg/kg/d): 4.84
Copy number (DENV-2 RL strain; Study 1 - 160222, 6 mg/kg/d): 5.85E+04 and 1.40E+05 and 1.03E+05 and 2.15E+04 and 1.94E+05 and 8.27E+04 and 1.06E+04 and 2.60E+04
Log 10 (copy number) (DENV-2 RL strain; Study 1 - 160222, 6 mg/kg/d): 4.77 and 5.15 and 5.01 and 4.33 and 5.29 and 4.92 and 4.03 and 4.41
Av Log 10 (average) (DENV-2 RL strain; Study 1 - 160222, 60 mg/kg/d): 3.05
Av Log 10 (Ave/Med: median) (DENV-2 RL strain; Study 1 - 160222, 60 mg/kg/d): 2.59
Copy number (DENV-2 RL strain; Study 1 - 160222, 60 mg/kg/d): 3.93E+02 and 1.22E+04 and 1.55E+03 and 5.28E+03
Log 10 (copy number) (DENV-2 RL strain; Study 1 - 160222, 60 mg/kg/d): 2.59 and 4.09 and 3.19 and 3.72
Av Log 10 (average) (DENV-2 RL strain; Study 2 - 160510, 0,6 mg/kg/d): 4.52
Av Log 10 (Ave/Med: median) (DENV-2 RL strain; Study 2 - 160510, 0,6 mg/kg/d): 4.66
Copy number (DENV-2 RL strain; Study 2 - 160510, 0,6 mg/kg/d): 3.02E+04 and 4.20E+05 and 7.57E+04 and 6.60E+04 and 3.93E+02 and 1.74E+04 and 1.01E+05 and 3.12E+04
Log 10 (copy number) (DENV-2 RL strain; Study 2 - 160510, 0,6 mg/kg/d): 4.48 and 5.62 and 4.88 and 4.82 and 2.59 and 4.24 and 5.00 and 4.49
Av Log 10 (average) (DENV-2 RL strain; Study 2 - 160510, 2 mg/kg/d): 4.07
Av Log 10 (Ave/Med: median) (DENV-2 RL strain; Study 2 - 160510, 2 mg/kg/d): 4.30
Copy number (DENV-2 RL strain; Study 2 - 160510, 2 mg/kg/d): 2.06E+04 and 6.20E+04 and 1.87E+04 and 2.60E+04 and 3.93E+02 and 1.87E+05
Log 10 (copy number) (DENV-2 RL strain; Study 2 - 160510, 2 mg/kg/d): 4.31 and 4.28 and 4.79 and 4.27 and 4.41 and 2.59 and 5.27
